In patent US20240425807A1, “MANUFACTURING METHOD OF MIXED POWDER, MIXED POWDER, POWDER, AND POWDER MEDIUM” (FUJIFILM Corporation, priority 2022, published 2024):

Legend:
[1] = Overall evaluation based on solubility and liquid property; type: physicochemical; conditions: combined from solubility and liquid property
[2] = Liquid property (pH) of solution obtained in solubility evaluation; type: physicochemical; conditions: pH of the solution obtained in the solubility evaluation (tyrosine 0.44 g/L in distilled water)
Procedure: A pH of the solution obtained in the evaluation of solubility was evaluated. Liquid property was evaluated according to the following evaluation standard.

- Liquid property [2]: Neutral (pH of 6.0 to 8.5)
SMILES: N[C@@H](Cc1ccc(O)cc1)C(=O)O [Comparative Example 1, L-tyrosine]
- Overall evaluation [1]: E (the solution was still turbid even after 1 hour, and/or the pH was other than neutral)
